{"source": "patent US10577378B2", "about": "“EIF4A-inhibiting compounds and methods related thereto” (eFFECTOR Therapeutics, Inc., priority 2015, dated 2020)", "test_system": "MDA-MB-231 human breast cancer cells", "assay": "Cell proliferation assay (CellTiter-Glo, 72 hours treatment)", "format": "cell-based", "conditions": "Homo sapiens, read-out: MDA-MB-231 cell proliferation assay (IC50)", "procedure,_shortened": "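IC50 categories: under 100 nM +++, 100–1000 nM ++, above 1000 nM +, derived by sigmoidal curve fitting of CellTiter-Glo luminescence. Cells plated at 2,500 per well, dosed the following day and exposed 72 h at 37 °C versus DMSO control.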", "key": {"[1]": {"conditions": "MDA-MB-231 cells, 72 hours at 37° C., CellTiter-Glo"}}, "note": "Where two headings read alike, the source gives them in different places."}
{"smiles": "N#Cc1ccc([C@@]23Oc4cc(Cl)cnc4[C@]2(O)[C@H](O)[C@H](CN)[C@H]3c2ccccc2)cc1", "note": "(racemic) [30F, rac-4-((5aR,6S,7S,8R,8aS)-7-(aminomethyl)-3-chloro-8,8a-dihydroxy-6-phenyl-6,7,8,8a-tetrahydro-5aH-cyclopenta[4,5]furo[3,2-b]pyridin-5a-yl)benzonitrile]", "values": [{"measurement": "IC50", "setting": "[1]", "result": "100 to 1000", "unit": "nM"}]}
{"smiles": "COc1nc(C#N)cc2c1[C@]1(O)[C@H](O)[C@H](CNCC(F)F)[C@@H](c3ccccc3)[C@]1(c1ccc(C#N)cc1)O2", "note": "(racemic) [197F, Rac-(5aR,6S,7S,8R,8aS)-5a-(4-cyanophenyl)-7-(((2,2-difluoroethyl)amino)methyl)-8,8a-dihydroxy-1-methoxy-6-phenyl-5a,7,8,8a-tetrahydro-6H-cyclopenta[4,5]furo[3,2-c]pyridine-3-carbonitrile]", "values": [{"measurement": "IC50", "setting": "[1]", "result": "100 to 1000", "unit": "nM"}]}
{"smiles": "COc1cncc2c1[C@]1(O)[C@](O)(CN3CCOCC3)C[C@@H](c3ccccc3)[C@]1(c1ccc(C#N)cc1)O2", "note": "(racemic) [287F, Rac-4-((4bS,5R,7S,7aR)-4b,5-dihydroxy-4-methoxy-5-(morpholinomethyl)-7-phenyl-4b,5,6,7-tetrahydro-7aH-cyclopenta[4,5]furo[2,3-c]pyridin-7a-yl)benzonitrile]", "values": [{"measurement": "IC50", "setting": "[1]", "result": "> 1000", "unit": "nM"}]}
{"smiles": "COCCN(C)C(=O)[C@H]1[C@@H](O)[C@@]2(O)c3c(OC)cncc3O[C@@]2(c2ccc(Br)cc2)[C@@H]1c1ccccc1", "note": "(racemic) [260F, rac-(4bS,5R,6R,7S,7aR)-7a-(4-bromophenyl)-4b,5-dihydroxy-4-methoxy-N-(2-methoxyethyl)-N-methyl-7-phenyl-4b,6,7,7a-tetrahydro-5H-cyclopenta[4,5]furo[2,3-c]pyridine-6-carboxamide]", "values": [{"measurement": "IC50", "setting": "[1]", "result": "< 100", "unit": "nM"}]}
{"smiles": "NC[C@H]1C[C@@H](c2ccccc2)[C@]2(c3ccc(Br)cc3)Oc3cc(Cl)cnc3[C@]12O", "note": "(racemic) [174F, Rac-(5aR,6S,8R,8aR)-8-(aminomethyl)-5a-(4-bromophenyl)-3-chloro-6-phenyl-5a,6,7,8-tetrahydro-8aH-cyclopenta[4,5]furo[3,2-b]pyridin-8a-ol]", "values": [{"measurement": "IC50", "setting": "[1]", "result": "< 100", "unit": "nM"}]}
{"smiles": "COc1nc(Cl)cc2c1[C@]1(O)[C@H](O)[C@H](CN(C)C)[C@@H](c3ccccc3)[C@]1(c1ccc(Br)cc1)O2", "note": "(racemic) [138F, Rac-(5aR,6S,7S,8R,8aS)-5a-(4-bromophenyl)-3-chloro-7-((dimethylamino)methyl)-1-methoxy-6-phenyl-5a,6,7,8-tetrahydro-8aH-cyclopenta[4,5]furo[3,2-c]pyridine-8,8a-diol]", "values": [{"measurement": "IC50", "setting": "[1]", "result": "< 100", "unit": "nM"}]}
{"smiles": "COc1nc(Cl)cc2c1[C@]1(O)[C@H](O)[C@H](CNCC(F)F)[C@@H](c3ccccc3)[C@]1(c1ccc(C#N)cc1)O2", "note": "(racemic) [196F, Rac-4-((5aR,6S,7S,8R,8aS)-3-chloro-7-(((2,2-difluoroethyl)amino)methyl)-8,8a-dihydroxy-1-methoxy-6-phenyl-6,7,8,8a-tetrahydro-5aH-cyclopenta[4,5]furo[3,2-c]pyridin-5a-yl)benzonitrile]", "values": [{"measurement": "IC50", "setting": "[1]", "result": "< 100", "unit": "nM"}]}
{"smiles": "COc1cncc2c1[C@]1(O)[C@@H](CNCc3ccncc3)[C@H](CO)[C@@H](c3ccccc3)[C@]1(c1ccc(Br)cc1)O2", "note": "(racemic) [187F, Rac-(4bR,5R,6R,7S,7aR)-7a-(4-bromophenyl)-6-(hydroxymethyl)-4-methoxy-7-phenyl-5-(((pyridin-4-ylmethyl)amino)methyl)-5,6,7,7a-tetrahydro-4bH-cyclopenta[4,5]furo[2,3-c]pyridin-4b-ol]", "values": [{"measurement": "IC50", "setting": "[1]", "result": "< 100", "unit": "nM"}]}
{"smiles": "COc1nc(Cl)cc2c1[C@]1(O)[C@H](O)[C@H](CN3CC(C(F)F)C3)[C@@H](c3ccccc3)[C@]1(c1ccc(C#N)cc1)O2", "note": "(racemic) [217F, rac-4-((5aR,6S,7S,8R,8aS)-3-chloro-7-((3-(difluoromethyl)azetidin-1-yl)methyl)-8,8a-dihydroxy-1-methoxy-6-phenyl-6,7,8,8a-tetrahydro-5aH-cyclopenta[4,5]furo[3,2-c]pyridin-5a-yl)benzonitrile]", "values": [{"measurement": "IC50", "setting": "[1]", "result": "< 100", "unit": "nM"}]}
{"smiles": "COc1cncc2c1[C@]1(O)[C@@H](CN3CCN(C)CC3)[C@H](CO)[C@@H](c3ccccc3)[C@]1(c1ccc(Br)cc1)O2", "note": "(racemic) [183F, Rac-(4bR,5R,6R,7S,7aR)-7a-(4-bromophenyl)-6-(hydroxymethyl)-4-methoxy-5-((4-methylpiperazin-1-yl)methyl)-7-phenyl-5,6,7,7a-tetrahydro-4bH-cyclopenta[4,5]furo[2,3-c]pyridin-4b-ol]", "values": [{"measurement": "IC50", "setting": "MDA-MB-231, 72 h", "result": "< 100", "unit": "nM"}]}
{"smiles": "COc1cncc2c1[C@]1(O)[C@H](O)[C@H](CN3[C@@H]4COC[C@H]3C4)[C@@H](c3ccccc3)[C@]1(c1ccc(C#N)cc1)O2", "note": "(racemic) [267F, Rac-4-((4bS,5R,6S,7S,7aR)-6-(((1R,5S)-3-oxa-6-azabicyclo[3.1.1]heptan-6-yl)methyl)-4b,5-dihydroxy-4-methoxy-7-phenyl-4b,5,6,7-tetrahydro-7aH-cyclopenta[4,5]furo[2,3-c]pyridin-7a-yl)benzonitrile]", "values": [{"measurement": "IC50", "setting": "[1]", "result": "100 to 1000", "unit": "nM"}]}
{"smiles": "CN(C)C(=O)[C@H]1[C@@H](O)[C@@]2(O)c3ccc(C#N)cc3S[C@@]2(c2ccc(C#N)cc2)[C@@H]1c1ccccc1", "note": "(racemic) [13F, Rac-(1R,2R,3S,3aR,8bS)-6-cyano-3a-(4-cyanophenyl)-1,8b-dihydroxy-N,N-dimethyl-3-phenyl-2,3,3a,8b-tetrahydro-1H-benzo[b]cyclopenta[d]thiophene-2-carboxamide]", "values": [{"measurement": "IC50", "setting": "[1]", "result": "> 1000", "unit": "nM"}]}
{"smiles": "COc1cncc2c1[C@]1(O)[C@@H](CN)[C@H](CO)[C@@H](c3ccccc3)[C@]1(c1ccc(Br)cc1)O2", "note": "(racemic) [170F, Rac-(4bR,5R,6R,7S,7aR)-5-(aminomethyl)-7a-(4-bromophenyl)-6-(hydroxymethyl)-4-methoxy-7-phenyl-5,6,7,7a-tetrahydro-4bH-cyclopenta[4,5]furo[2,3-c]pyridin-4b-ol]", "values": [{"measurement": "IC50", "setting": "[1]", "result": "< 100", "unit": "nM"}]}
{"smiles": "CN(C)C(=O)[C@H]1[C@@H](O)[C@@]2(O)c3cnc(C#N)cc3O[C@@]2(c2ccc(C#N)cc2)[C@@H]1c1ccccc1", "note": "(racemic) [14F, rac-(5aR,6S,7R,8R,8aS)-3-cyano-5a-(4-cyanophenyl)-8,8a-dihydroxy-N,N-dimethyl-6-phenyl-5a,7,8,8a-tetrahydro-6H-cyclopenta[4,5]furo[3,2-c]pyridine-7-carboxamide]", "values": [{"measurement": "IC50", "setting": "[1]", "result": "100 to 1000", "unit": "nM"}]}
{"smiles": "COc1cncc2c1[C@]1(O)[C@H](O)[C@H](C(=O)N(C)Cc3cccnc3)[C@@H](c3ccccc3)[C@]1(c1ccc(Br)cc1)O2", "note": "(racemic) [277F, Rac-(4bS,5R,6R,7S,7aR)-7a-(4-bromophenyl)-4b,5-dihydroxy-4-methoxy-N-methyl-7-phenyl-N-(pyridin-3-ylmethyl)-4b,6,7,7a-tetrahydro-5H-cyclopenta[4,5]furo[2,3-c]pyridine-6-carboxamide]", "values": [{"measurement": "IC50", "setting": "[1]", "result": "< 100", "unit": "nM"}]}
{"smiles": "COc1cc2c(c(OC)n1)[C@]1(O)[C@H](O)[C@H](CN(C)C)[C@@H](c3ccccc3)[C@]1(c1ccc(Br)cc1)O2", "note": "(racemic) [230F, Rac-(5aR,6S,7S,8R,8aS)-5a-(4-bromophenyl)-7-((dimethylamino)methyl)-1,3-dimethoxy-6-phenyl-5a,6,7,8-tetrahydro-8aH-cyclopenta[4,5]furo[3,2-c]pyridine-8,8a-diol]", "values": [{"measurement": "IC50", "setting": "[1]", "result": "< 100", "unit": "nM"}]}
{"smiles": "COc1nccc2c1[C@]1(O)[C@H](O)[C@H](C(=O)N(C)C)[C@@H](c3ccccc3)[C@]1(c1ccc(C#N)cc1)O2", "note": "(racemic) [19F, rac-(5aR,6S,7R,8R,8aS)-5a-(4-cyanophenyl)-8,8a-dihydroxy-1-methoxy-N,N-dimethyl-6-phenyl-5a,7,8,8a-tetrahydro-6H-cyclopenta[4,5]furo[3,2-c]pyridine-7-carboxamide]", "values": [{"measurement": "IC50", "setting": "[1]", "result": "100 to 1000", "unit": "nM"}]}
{"smiles": "CCN(CC)C[C@H]1[C@@H](O)[C@@]2(O)c3c(cc(C#N)nc3OC)O[C@@]2(c2ccc(C#N)cc2)[C@@H]1c1ccccc1", "note": "(racemic) [159Fc, Rac-(5aR,6S,7S,8R,8aS)-5a-(4-cyanophenyl)-7-((diethylamino)methyl)-8,8a-dihydroxy-1-methoxy-6-phenyl-5a,7,8,8a-tetrahydro-6H-cyclopenta[4,5]furo[3,2-c]pyridine-3-carbonitrile]", "values": [{"measurement": "IC50", "setting": "[1]", "result": "< 100", "unit": "nM"}]}
{"smiles": "COc1nc(C#N)cc2c1[C@]1(O)[C@H](O)[C@H](CN3CCC(F)(F)C3)[C@@H](c3ccccc3)[C@]1(c1ccc(C#N)cc1)O2", "note": "(racemic) [153F, Rac-(5aR,6S,7S,8R,8aS)-5a-(4-cyanophenyl)-7-((3,3-difluoropyrrolidin-1-yl)methyl)-8,8a-dihydroxy-1-methoxy-6-phenyl-5a,7,8,8a-tetrahydro-6H-cyclopenta[4,5]furo[3,2-c]pyridine-3-carbonitrile]", "values": [{"measurement": "IC50", "setting": "[1]", "result": "100 to 1000", "unit": "nM"}]}
{"smiles": "C=C1C[C@@H](c2ccccc2)[C@]2(c3ccc(Br)cc3)Oc3cc(Cl)cnc3[C@]12O", "note": "(racemic) [34F, Rac-(5aR,6S,8aR)-5a-(4-bromophenyl)-3-chloro-8-methylene-6-phenyl-5a,6,7,8-tetrahydro-8aH-cyclopenta[4,5]furo[3,2-b]pyridin-8a-ol]", "values": [{"measurement": "IC50", "setting": "[1]", "result": "> 1000", "unit": "nM"}]}
{"smiles": "COc1cncc2c1[C@]1(O)[C@H](O)[C@H](C(=O)N(C)C)[C@@H](c3ccccc3)[C@]1(c1ccc(C#N)cc1)O2", "note": "(single isomer, unassigned) [64F]", "values": [{"measurement": "IC50", "setting": "[1]", "result": "< 100", "unit": "nM"}]}
{"smiles": "COc1cncc2c1[C@]1(O)[C@H](O)[C@H](S(=O)(=O)CC(F)(F)F)[C@@H](c3ccccc3)[C@]1(c1ccc(Br)cc1)O2", "note": "(racemic) [117F, Rac-(4bS,5S,6R,7S,7aR)-7a-(4-bromophenyl)-4-methoxy-7-phenyl-6-((2,2,2-trifluoroethyl)sulfonyl)-5,6,7,7a-tetrahydro-4bH-cyclopenta[4,5]furo[2,3-c]pyridine-4b,5-diol]", "values": [{"measurement": "IC50", "setting": "[1]", "result": "> 1000", "unit": "nM"}]}
{"smiles": "COc1cncc2c1[C@]1(O)[C@H](O)[C@H](C(=O)N3CCC(F)(F)CC3)[C@@H](c3ccccc3)[C@]1(c1ccc(Br)cc1)O2", "note": "(racemic) [135F, Rac-((4bS,5R,6R,7S,7aR)-7a-(4-bromophenyl)-4b,5-dihydroxy-4-methoxy-7-phenyl-4b,6,7,7a-tetrahydro-5H-cyclopenta[4,5]furo[2,3-c]pyridin-6-yl)(4,4-difluoropiperidin-1-yl)methanone]", "values": [{"measurement": "IC50", "setting": "[1]", "result": "< 100", "unit": "nM"}]}
